Data published in US8986961B2, “Fermentative production of acetone from renewable resources by means of novel metabolic pathway” (Evonik Degussa GmbH, priority 2007, dated 2015).
Several values for one entry are separate records, joined by “and”; a condition that tells them apart may be missing. Equal entries are not always repeated.

Legend:
[1] = test system: acyl-CoA synthetase/acyl-CoA thiokinase (with AMP formation; EC 6.2.1.2); conditions: purified enzyme, Shimizu et al. 1981; read-out: Km for substrate; cited from earlier work
[2] = molecular target: T1, Acetoacetyl-CoA synthetase (AACS) (Rhizobium meliloti, UniProt Q9Z3R3); conditions: purified AACS, DTNB assay
T1 sequence (Q9Z3R3 1-650): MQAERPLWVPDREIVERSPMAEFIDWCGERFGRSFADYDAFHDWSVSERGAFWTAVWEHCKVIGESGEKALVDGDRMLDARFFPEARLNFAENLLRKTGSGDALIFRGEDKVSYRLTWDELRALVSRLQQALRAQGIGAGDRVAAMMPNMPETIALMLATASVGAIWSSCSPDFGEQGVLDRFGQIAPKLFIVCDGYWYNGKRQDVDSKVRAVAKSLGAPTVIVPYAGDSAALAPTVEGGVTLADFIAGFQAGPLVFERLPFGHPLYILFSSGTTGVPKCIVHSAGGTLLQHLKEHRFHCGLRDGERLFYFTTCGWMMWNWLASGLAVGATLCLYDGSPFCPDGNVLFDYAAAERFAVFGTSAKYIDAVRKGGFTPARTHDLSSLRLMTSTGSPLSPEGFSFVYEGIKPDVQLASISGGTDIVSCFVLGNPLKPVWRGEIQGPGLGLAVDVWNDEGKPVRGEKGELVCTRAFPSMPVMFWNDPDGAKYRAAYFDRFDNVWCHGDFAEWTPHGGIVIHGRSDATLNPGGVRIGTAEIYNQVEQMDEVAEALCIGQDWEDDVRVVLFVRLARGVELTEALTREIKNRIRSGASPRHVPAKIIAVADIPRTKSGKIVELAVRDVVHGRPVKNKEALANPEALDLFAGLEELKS
Source text: (§1) The resulting fractions were combined and employed for the activity determination. […] In the DTNB assay, the terminal sulfhydryl group of CoA, which has been liberated by the enzymatic conversion to acetoacetate or acetate, reacts with DTNB to give a coloured product which can be determined by photometry at 412 nm.

[3] = molecular target: T2, Thioesterase II (TEIIsrf) (Bacillus subtilis, UniProt Q08788); conditions: read-out: Km of TEIIsrf for substrate; purified His-tagged TEIIsrf, DTNB assay 412 nm, Lineweaver-Burk
T2 sequence (Q08788 with tags, fused parts or gaps): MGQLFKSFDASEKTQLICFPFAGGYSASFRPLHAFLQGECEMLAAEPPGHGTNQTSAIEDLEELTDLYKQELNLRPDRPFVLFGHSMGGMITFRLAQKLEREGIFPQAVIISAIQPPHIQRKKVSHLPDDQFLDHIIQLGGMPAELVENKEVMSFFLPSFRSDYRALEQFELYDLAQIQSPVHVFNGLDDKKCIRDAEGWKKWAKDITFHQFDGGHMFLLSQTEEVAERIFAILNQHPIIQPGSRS
Protocol: (§2) The intended activity measurement using the DTNB assay [5,5′-dithiobis(2-nitrobenzoic acid)], with which free SH groups are determined, required purification of the protein. This took place with the assistance of FPLC via the fused His tag of TEIIsrf by means of metal chelate affinity chromatography on Ni^2+-NTA agarose and increasing imidazole gradient.
(§3) For this purpose, initially the cells were harvested (5000×g, 15 min, 4° C.), suspended in 3 ml/g fresh weight of cell disruption buffer (50 mM HEPES, 300 mM NaCl, pH 7.8) and stored if necessary at −20° C. The cells were disrupted by ultrasound treatment (Sonicator Bandelin Sonopuls, Bandelin Berlin), and the crude extract was obtained by centrifugation (30 000×g, 30 min, 4° C.). Purification took place on an FPLC system (Pharmacia Biotech GmbH). 3.5 ml of crude extract were loaded onto the Ni^2+-NTA agarose column (Qiagen Superflow, bed volume 5 ml) which had been prepared and equilibrated (50 mM HEPES, 300 mM NaCl, 30 mM imidazole, pH 7) in accordance with the manufacturer's instructions. […]
as §1

[4] = molecular target: YbgC acyl-CoA thioesterase (EC 3.1.2.18) (Haemophilus influenzae, UniProt P44679); conditions: Zhuang et al. 2002; read-out: Km of YbgC for substrate; cited from earlier work
[5] = test system: CC(=O)CC(=O)SCCNC(=O)CCNC(=O)[C@H](O)C(C)(C)COP(=O)(O)OP(=O)(O)OC[C@H]1O[C@@H](n2cnc3c(N)ncnc32)[C@H](O)[C@@H]1OP(=O)(O)O; experiment: purified protein, by the assay type; conditions: other: YbgC elution fractions (IMPACT system), DTNB assay; measurements varied
Protocol: as §1
Expression took place in E. coli BL21 (DE3) in LBAmp medium until induction at an OD600nm of ˜0.5 with 0.5 mM IPTG at 37° C., and thereafter the culture was incubated at 20° C. and 150 rpm for a further 6 h. The heterologously expressed fusion protein (approx. 70 kDa) binds to chitin. Addition of DTT causes a conformational change and induces cutting out of the target protein (approx. 15 kDa), which can subsequently be eluted.

[6] = test system: CC(=O)SCCNC(=O)CCNC(=O)[C@H](O)C(C)(C)COP(=O)(O)OP(=O)(O)OC[C@H]1O[C@@H](n2cnc3c(N)ncnc32)[C@H](O)[C@@H]1OP(=O)(O)O; experiment: purified protein, by the assay type; conditions: other: YbgC elution fractions (IMPACT system), DTNB assay; measurements varied
E. coli HB101 = experiment: Acetone formation in E. coli HB101, 5 ml cultures; assay type: cell-based, Escherichia coli; conditions: HB101, LBAmp, 5 ml culture, 37° C., glucose 20 g/l, cell-free supernatant, gas chromatography
Protocol: All the resulting plasmid variants (see Table 1) were investigated for acetone formation in the E. coli cloning strain HB101. The analyses took place on the 5 ml scale in LB medium with ampicillin (100 μg/ml) after inoculation from appropriate precultures and after incubation at 37° C. and 200 rpm. The optical density (600 nm) was followed by photometry and, at a value of about 0.5-0.6, expression of the cloned genes was induced by adding 1 mM IPTG (isopropyl β-D-thiogalactopyrano-side) and, after 3-4 h, glucose (20 g/l) was added. No induction took place with the variants under the control of the thiolase promoter because it was assumed that constitutive expression takes place. Samples were taken at particular times over a period of about 48 h, and the concentration of acetone and acetate in the cell-free medium supernatant was determined by gas chromatography. Additional glucose doses optionally took place in varying amounts (in the range 10-40 g/l) either 4 h after induction or else simultaneously with the induction.

[7] = substrate: CC(=O)CC(=O)SCCNC(=O)CCNC(=O)[C@H](O)C(C)(C)COP(=O)(O)OP(=O)(O)OC[C@H]1O[C@@H](n2cnc3c(N)ncnc32)[C@H](O)[C@@H]1OP(=O)(O)O; experiment: purified protein, by the assay type; conditions: other: purified His-tagged TEIIsrf, DTNB assay 412 nm, Lineweaver-Burk
Protocol: as §2, §3, §1

[8] = substrate: CC(=O)SCCNC(=O)CCNC(=O)[C@H](O)C(C)(C)COP(=O)(O)OP(=O)(O)OC[C@H]1O[C@@H](n2cnc3c(N)ncnc32)[C@H](O)[C@@H]1OP(=O)(O)O; experiment: purified protein, by the assay type; conditions: other: purified His-tagged AACS (peak 2), DTNB assay

Chain of YbgC acyl-CoA thioesterase (EC 3.1.2.18) (P44679 whole entry): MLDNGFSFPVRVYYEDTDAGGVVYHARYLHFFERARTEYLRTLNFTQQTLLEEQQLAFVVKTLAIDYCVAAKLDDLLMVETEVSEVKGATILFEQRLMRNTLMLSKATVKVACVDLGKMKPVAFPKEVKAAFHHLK

## CCC(=O)C(=O)O [2-ketobutyrate]
[1]
  Km: 25 µM

## CC(=O)CC(=O)SCCNC(=O)CCNC(=O)[C@H](O)C(C)(C)COP(=O)(O)OP(=O)(O)OC[C@H]1O[C@@H](n2cnc3c(N)ncnc32)[C@H](O)[C@@H]1OP(=O)(O)O [acetoacetyl-CoA]
[2]
  specific activity of the enzyme with substrate: 0.0038 µmol/min/mg

## CC(=O)SCCNC(=O)CCNC(=O)[C@H](O)C(C)(C)COP(=O)(O)OP(=O)(O)OC[C@H]1O[C@@H](n2cnc3c(N)ncnc32)[C@H](O)[C@@H]1OP(=O)(O)O [acetyl-CoA]
[3]
  Km: 200 µM

## CCCC(=O)SCCNC(=O)CCNC(=O)[C@H](O)C(C)(C)COP(=O)(O)OP(=O)(O)OC[C@H]1O[C@@H](n2cnc3c(N)ncnc32)[C@H](O)[C@@H]1OP(=O)(O)O [butyryl-CoA]
[4]
  Km: 24000 µM
[1]
  Km: 10 µM

## Acyl-CoA thioesterase YbgC (Haemophilus influenzae Rd KW20)
[5]
  Km: 140 µM
[6]
  Km: 530 µM

## pUC18att: plasmid SEQ ID No. 10; teIIsrf, adc, thlA in pUC18 under thl promoter
E. coli HB101
  Max. acetone concentration: 35 mM and 2.0 g/l

## β-hydroxybutyrate-CoA
[4]
  Km: 20000 µM
[1]
  Km: 25 µM

B1: Thioesterase II (TEIIsrf) (Bacillus subtilis subsp. subtilis str. 168) (protein)
chain: T2 sequence (Q08788 with tags, fused parts or gaps)
[7]
  Km: 770 µM

B2: Acetoacetyl-CoA synthetase (AACS) (Sinorhizobium meliloti 1021) (protein)
chain: T1 sequence (Q9Z3R3 1-650)
[8]
  Km: 700 µM
